The source of these data is BindingDB's records for PubMed 7915318 (Ohio State University, 1994).

In test [1] the target is Beta-2 adrenergic receptor (Homo sapiens, UniProt P07550).
Test [2] deals with Beta-1 adrenergic receptor (Cavia porcellus, UniProt B0FL73).
Test [3] addresses Beta-2 adrenergic receptor (Cavia porcellus, UniProt Q8K4Z4).
The target of test [4] is Beta-1 adrenergic receptor (Homo sapiens, UniProt P08588).

Several values for one entry are separate records, joined by “and”; a condition that tells them apart may be missing. Identical values can stand only once. A value given as a limit tells only on which side of the number the result lay.

Beta-2 adrenergic receptor (Homo sapiens, UniProt P07550), sequence (P07550 whole entry): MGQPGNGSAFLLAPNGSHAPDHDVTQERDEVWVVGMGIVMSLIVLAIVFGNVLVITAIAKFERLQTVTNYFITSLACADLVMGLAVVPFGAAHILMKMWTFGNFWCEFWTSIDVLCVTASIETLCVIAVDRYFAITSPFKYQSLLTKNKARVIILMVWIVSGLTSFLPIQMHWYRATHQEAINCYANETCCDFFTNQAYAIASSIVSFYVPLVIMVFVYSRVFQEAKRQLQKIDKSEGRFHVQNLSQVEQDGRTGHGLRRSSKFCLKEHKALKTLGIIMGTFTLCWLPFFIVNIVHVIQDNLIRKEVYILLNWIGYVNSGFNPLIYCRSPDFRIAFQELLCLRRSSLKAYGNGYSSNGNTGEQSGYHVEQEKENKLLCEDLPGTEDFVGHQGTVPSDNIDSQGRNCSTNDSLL
Beta-1 adrenergic receptor (Homo sapiens, UniProt P08588), sequence (P08588 whole entry): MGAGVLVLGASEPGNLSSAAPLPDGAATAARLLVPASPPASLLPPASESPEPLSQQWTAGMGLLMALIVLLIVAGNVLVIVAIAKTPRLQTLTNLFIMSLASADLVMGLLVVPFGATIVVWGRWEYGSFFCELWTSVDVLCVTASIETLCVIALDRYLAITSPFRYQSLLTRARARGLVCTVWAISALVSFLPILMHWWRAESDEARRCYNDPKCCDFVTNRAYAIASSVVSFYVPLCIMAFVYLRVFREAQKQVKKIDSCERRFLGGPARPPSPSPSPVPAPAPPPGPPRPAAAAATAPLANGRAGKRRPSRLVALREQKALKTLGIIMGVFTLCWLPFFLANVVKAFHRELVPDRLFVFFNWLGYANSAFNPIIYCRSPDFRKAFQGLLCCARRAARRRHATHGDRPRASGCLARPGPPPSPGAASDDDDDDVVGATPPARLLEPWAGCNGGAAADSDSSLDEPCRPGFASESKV
Beta-1 adrenergic receptor (Cavia porcellus, UniProt B0FL73), sequence (B0FL73 whole entry): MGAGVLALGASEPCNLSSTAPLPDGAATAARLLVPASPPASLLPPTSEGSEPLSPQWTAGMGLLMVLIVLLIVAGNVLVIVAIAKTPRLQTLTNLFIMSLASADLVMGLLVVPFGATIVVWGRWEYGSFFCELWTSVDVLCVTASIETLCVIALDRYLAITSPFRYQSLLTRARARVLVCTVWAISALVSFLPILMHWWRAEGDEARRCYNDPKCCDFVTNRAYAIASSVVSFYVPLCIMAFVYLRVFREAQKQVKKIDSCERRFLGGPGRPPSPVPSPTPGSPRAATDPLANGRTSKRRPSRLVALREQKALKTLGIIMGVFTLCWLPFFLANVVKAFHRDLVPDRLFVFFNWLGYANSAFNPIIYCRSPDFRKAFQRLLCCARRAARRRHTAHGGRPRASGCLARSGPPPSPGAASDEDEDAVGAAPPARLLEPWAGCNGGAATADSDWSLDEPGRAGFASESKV
Beta-2 adrenergic receptor (Cavia porcellus, UniProt Q8K4Z4), sequence (Q8K4Z4 whole entry): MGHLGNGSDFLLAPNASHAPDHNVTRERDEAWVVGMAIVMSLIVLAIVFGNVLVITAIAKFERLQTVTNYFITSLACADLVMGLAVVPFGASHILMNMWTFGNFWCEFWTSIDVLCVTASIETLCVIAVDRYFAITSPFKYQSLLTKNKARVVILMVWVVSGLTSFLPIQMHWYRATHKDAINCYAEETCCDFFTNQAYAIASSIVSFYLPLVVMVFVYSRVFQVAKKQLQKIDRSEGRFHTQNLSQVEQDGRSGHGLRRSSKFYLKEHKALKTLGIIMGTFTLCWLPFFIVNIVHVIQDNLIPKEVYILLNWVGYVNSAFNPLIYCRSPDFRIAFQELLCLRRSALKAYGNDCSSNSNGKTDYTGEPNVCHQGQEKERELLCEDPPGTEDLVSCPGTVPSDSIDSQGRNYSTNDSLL

As usually defined, the Ki is the dissociation constant of the complex between target and ligand, obtained from inhibition or displacement. For the compound `COc1cc(CC2NCCc3cc(O)c(O)cc32)cc([N+](=O)[O-])c1OC` (stereo unspecified) [TMQ, 3'-Nitro], the Ki in test [1] was 46.8 nM; in test [2], 31.6 nM; in test [3], 11 nM and 2.75 nM; in test [4] it was 14.8 nM.

As for `COc1cc(CC2NCCc3cc(O)c(O)c(I)c32)cc(OC)c1OC` (stereo unspecified) [TMQ, 8-Iodo], the inhibitory constant (Ki) in test [1] was 759 nM and 437 nM; in test [2], 631 nM; in test [3] it was 363 nM and 380 nM.

As to `COc1cc(CC2NCCc3cc(O)c(O)cc32)cc(I)c1OC` (stereo unspecified) [TMQ, 3'-Iodo], the Ki in test [1] is 2.69 nM and 1.69 nM; in test [2], 10 nM; in test [3], 1.09 nM and 2.34 nM; in test [4], 12.6 nM.

With `CC(C)NCC(O)c1ccc(O)c(O)c1` (stereo not drawn) [Isoproterenol,(+)], the Ki in test [3] was 324 nM and 107 nM.

Turning to `COc1cc(CC2c3cc(O)c(O)cc3CCN2C)cc(OC)c1OC` (stereo unspecified) [TMQ, N-methyl], the Ki in test [3] amounted to 851 nM.

For the compound `COc1cc(C[C@H]2NCCc3cc(O)c(O)c(F)c32)cc(OC)c1OC` [TMQ, R-(-)-8-Fluoro], the figures for the Ki in test [1] and in test [4] were 437 nM and 417 nM, respectively.

`COc1cc(CC2NCCc3cc(O)c(O)c(F)c32)cc(OC)c1OC` (racemic) [NSC_128658]: the values for the Ki in test [1] and in test [4] were 8.7 nM and 37.1 nM, respectively.

As to `CC(C)(C)NCC(O)c1cc(O)cc(O)c1` (racemic) [Terbutaline,(+/-)], in test [2], the inhibition constant (Ki) was > 10000 nM.

With `COc1cc(CC2NCCc3c(F)c(O)c(O)c(F)c32)cc(OC)c1OC` (stereo unspecified) [TMQ, 5,8-Difluoro], the Ki in test [1] was 8.7 nM and 6.16 nM; in test [2], 34.7 nM; in test [3] it was 6.6 nM and 4.26 nM; in test [4] it was 7.41 nM.

For the compound `COc1cc(C[C@@H]2NCCc3cc(O)c(O)c(F)c32)cc(OC)c1OC` [TMQ, S-(+)-8-Fluoro], the Ki is 10.2 nM in test [1] and 67.6 nM in test [4].

Turning to `COc1cc(CC2c3cc(O)c(O)cc3CCN2Cc2ccc(Cl)c(Cl)c2)cc(OC)c1OC` (stereo unspecified) [TMQ, N-dichlorobenzyl], the Ki came out at 3550 nM in test [2] and 1860 nM in test [3].

As to `COc1cc(CC2NCCc3c2cc(O)c(O)c3C(F)(F)F)cc(OC)c1OC` (stereo unspecified) [TMQ, 5-TrifluoroMe], the inhibitory constant (Ki) in test [2] is 1100 nM; in test [3], 1170 nM and 912 nM.

Take `COc1cc(CC2c3cc(O)c(O)cc3CCN2Cc2cccc(Cl)c2)cc(OC)c1OC` (stereo unspecified) [TMQ, N-chloro-benzyl]: the values for the Ki in test [2] and in test [3] were 6170 nM and 1260 nM, respectively.

For `CC(C)NCC(O)COc1cccc2[nH]ccc12` (stereo unspecified) [LB-46], the Ki in test [2] is 7.24 nM; in test [3] it was 2.63 nM and 1.14 nM.

Regarding `COc1cc(CC2c3cc(O)c(O)cc3CCN2Cc2cccc([N+](=O)[O-])c2)cc(OC)c1OC` (stereo unspecified) [TMQ, N-nitro-benzyl], the Ki in test [3] is 1620 nM and 1480 nM.

In the case of `COc1cc(CC2c3cc(O)c(O)cc3CCN2Cc2cccc(N)c2)cc(OC)c1OC` (stereo unspecified) [TMQ, N-amino-benzyl], the Ki in test [1] was 933 nM; in test [3] it was 3720 nM and 1320 nM.

Consider `COc1cc(CC2NCCc3c2cc(O)c(O)c3I)cc(OC)c1OC` (stereo unspecified) [TMQ, 5-Iodo], for which the Ki in test [1] was 10.2 nM; in test [2], 33.9 nM; in test [3], 37.1 nM and 11.5 nM.

Take `COc1cc(CC2NCCc3cc(O)c(O)cc32)cc(OC)c1OC` (stereo unspecified) [1-(3,4,5-Trimethoxy-benzyl)-1,2,3,4-tetrahydro-isoquinoline-6,7-diol]: the inhibition constant Ki in test [3] is 105 nM and 22.9 nM.

`COc1cc(C[C@@H]2NCCc3cc(O)c(O)cc32)cc(OC)c1OC` [CAS_65772]: the inhibition constant Ki in test [2] is 110 nM; in test [3], 27.5 nM and 9.77 nM.

As to `COc1cc(CC2c3cc(O)c(O)cc3CCN2CCO)cc(OC)c1OC` (stereo unspecified) [TMQ, N-hydroxyethyl], the inhibition constant Ki was 5370 nM in test [2] and 2750 nM in test [3].

In the case of `COc1cc(C[C@H]2NCCc3cc(O)c(O)cc32)cc(OC)c1OC` [TMQ, R-(+)], the Ki in test [2] is > 10000 nM; in test [3] it was > 10000 nM and 9330 nM.

For `COc1cc(CC2NCCc3cc(O)c(O)cc32)cc2c1OS(=O)O2` (stereo unspecified) [TMQ, Cyclic sulfite], the Ki in test [2] was > 10000 nM; in test [3] it was 3470 nM and 1950 nM.

Regarding `COc1c(I)cc(CC2NCCc3cc(O)c(O)cc32)cc1I` (stereo unspecified) [TMQ, 3',5'-Diiodo], the inhibition constant (Ki) is 0.58 nM and 0.74 nM in test [1]; 10.5 nM in test [2]; 2.81 nM and 0.97 nM in test [3].

Consider `COc1cc(CC2NCCc3cc(O)c(O)cc32)cc(N)c1OC` (stereo unspecified) [TMQ, 3'-Amino], for which the inhibitory constant (Ki) in test [1] was 141 nM; in test [2], 457 nM; in test [3] it was 490 nM and 97.7 nM; in test [4] it was 214 nM.

In the case of `COc1cc(CC2c3cc(O)c(O)cc3CCN2Cc2ccccc2)cc(OC)c1OC` (stereo unspecified) [TMQ, N-benzyl], in test [2], the inhibition constant Ki came out at 1100 nM.

Take `COc1cc(CC2=NCCc3cc(O)c(O)cc32)cc(OC)c1OC` [TMQ, Amidine]: in test [3], the inhibition constant Ki is > 10000 nM.
